Test results taken from US6323369A, “Substituted cycloheptenes, their preparation and use” (Gruenenthal GmbH, priority 1998, dated 2001).
Where a name gives a salt, the structure may show the parent alone.

Tests used:
[1] = system: phenylquinone-induced writhing in mice; experiment: Anti-nociceptive activity in phenylquinone-induced writhing test in mice; type: in vivo, mouse (male NMRI); details: Mus musculus, iv, 10 min; i.v., phenylquinone i.p. 10 min after compound, writhing counted 5-20 min after phenylquinone; 10 animals per dose; 95% confidence range in parentheses
Procedure: The anti-nociceptive effectiveness was tested in phenylquinone-induced writhing in mice, modified by I. C.Hendershot, J. Forsaith, J. Pharmacol. Exp. Ther. 125, 237-240 (1959). Here, male NMRI mice with a weight of 25-30 g were used. 10 min after intravenous administration of a compound according to the invention, 0.3 ml/mouse of a 0.02% strength aqueous solution of phenylquinone was administered intraperitoneally to groups of 10 animals per substance dose (phenylbenzoquinone, Sigma, Deisenhofen; solution prepared by adding 5% ethanol and storing in a water bath at 45° C.). The animals were placed individually in observation cages. Using a push button counter,the number of pain-induced stretching movements (so-called writhing reactions=straightening the body while stretching out the back extremities) was counted 5-20 min after administration of the phenylquinone. From the dose-dependent decrease in writhing reactions as compared with groups of animals tested in parallel to which no compounds according to the invention had been administered, the ED50 values for the writhing reaction were calculated using regression analysis (evaluation programme Martens EDV service, Eckental).

[2] = target: T1, δ-opiate receptor (Rattus norvegicus, UniProt P33533); experiment: δ-opiate receptor bonding test ((3H)-2-D-ala-deltorphin II displacement); type: binding, rat (male Wistar); details: rat brain membrane homogenate, 1 nmol/l (3H)-2-D-ala-deltorphin II, 90 min at 37° C., pH 7.4; mean ± standard deviation of 3 independent trials
T1 construct: performed in brain membrane homogenates; from tissue; host or cells: rat brain without cerebellum, pons and medulla oblongata, male Wistar rats (membrane homogenate)
Procedure: Tests on determining the affinity of compounds of the formula I according to the invention for the δ-opiate receptor were performed in brain membrane homogenates (homogenate from rat brain without the cerebellum, pons and medulla oblongata from male Wistar rats). In this case, freshly prepared rat brain was homogenised each time, cooled by ice, in 50 mmol/l of tris-HCl (tris-(hydroxymethyl)-aminomethane hydrochloride) (pH 7.4) and centrifuged for 10 min at 5,000 g and 4° C. After decanting and discarding the supernatant liquid, the membrane sediment was again taken up in 50 mmol/l of tris-HCl (pH 7.4) and homogenised and the homogenate was then centrifuged for 20 min at 20,000 g and 4° C. This wash stage was repeated once more. Then the supernatant liquid was decanted and the membrane sediment was homogenised in cold 50 mmol/l tris-HCl, 20% glycerol (w:v), 0.01% bacitracin (w/v) (pH 7.4) and frozen in portions until tested. For the receptor bonding tests, the portions were thawed out and diluted 1:10 with the bonding test buffer. A 50 mmol/l tris-HCl, 5 mmol/l MgCl2 (pH 7.4) supplemented with 0.1% (w:v) of bovine serum albumin was used as buffer, and 1 nmol/l of (^3 H)-2-D-ala-deltorphin II was used as a radioactive ligand in the bonding test. The proportion of non-specific bonding was determined in the presence of […] of naloxon. In further batches, the compounds according to the invention were added in a number of concentrations and the displacement of the radioactive ligand from its specific bond was determined. Three identical batches were incubated for 90 min at 37° C. and then harvested in order to determine the radioactive ligand bonded to the membrane homogenate by means of filtration through a glass fibre filter (GF/B). The radioactivity of the glass fibre filter discs was measured in a beta-counter by adding a scintillator. The affinity of compounds according to the invention for the δ-opiate receptor was calculated as IC50 in accordance with the law of mass action using non-linear regression. The K values in table 1 are given as the average value plus or minus the standard deviation of 3 quite independent trials.

T1 sequence (P33533 whole entry): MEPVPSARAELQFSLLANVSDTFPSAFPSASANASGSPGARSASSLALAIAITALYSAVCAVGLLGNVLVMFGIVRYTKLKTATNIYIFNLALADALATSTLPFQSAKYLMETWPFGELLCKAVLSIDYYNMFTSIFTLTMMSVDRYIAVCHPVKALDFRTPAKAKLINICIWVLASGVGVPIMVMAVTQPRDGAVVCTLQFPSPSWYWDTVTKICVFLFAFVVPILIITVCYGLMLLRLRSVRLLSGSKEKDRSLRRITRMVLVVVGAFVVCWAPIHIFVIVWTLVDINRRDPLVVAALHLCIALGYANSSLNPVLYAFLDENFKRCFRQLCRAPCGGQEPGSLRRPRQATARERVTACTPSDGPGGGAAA

Structure (SMILES)	ED50 [1] [mg/kg]	Ki [2] [nM]
CN(C)CC1=C(c2cccc(O)c2)CC(c2cccc(O)c2)CCC1.Cl (stereo not drawn) [Example 1, 3-[2-dimethylaminomethyl-6-(3-hydroxyphenyl)-cyclohept-1-enyl]-phenol hydrochloride]	3.31	1.4 ± 0.8
CN(C)CC1=C(c2cccc(O)c2)CC(c2ccc(Cl)cc2)CCC1.Cl (stereo not drawn) [Example 2a, 3-[6-(4-chlorophenyl)-2-dimethylaminomethyl-cyclohept-1-enyl]-phenol hydrochloride]	7.4	30.3 ± 4.7
CN(C)CC1=C(c2cccc(O)c2)CC(c2ccccc2)CCC1.Cl (stereo not drawn) [Example 2b, 3-(2-dimethylaminomethyl-6-phenyl-cyclohept-1-enyl)-phenol hydrochloride]	4.48	3.8 ± 0.2
CN(C)CC1=C(c2cccc(O)c2)CC(c2cccc3ccccc23)CCC1.Cl (stereo not drawn) [Example 2c, 3-(2-dimethylaminomethyl-6-naphth-1-yl-cyclohept-1-enyl)-phenol hydrochloride]	5.29	24.7 ± 2.4
CN(C)CC1=C(c2cccc(O)c2)CC(c2ccc3ccccc3c2)CCC1.Cl (stereo not drawn) [Example 2d, 3-(2-dimethylaminomethyl-6-naphth-2-yl-cyclohept-1-enyl]-phenol hydrochloride]	7.56	31.5 ± 5.9
CN(C)CC1=C(c2cccc(O)c2)CC(c2ccc(O)cc2)CCC1.Cl (stereo not drawn) [Example 2e, 3-[2-dimethylaminomethyl-6-(4-hydroxyphenyl)-cyclohept-1-enyl]-phenol hydrochloride]	2.25	15.2 ± 4.3
Cc1cccc(C2CCCC(CN(C)C)=C(c3cccc(O)c3)C2)c1 (stereo not drawn) [Example 2f, 3-(2-dimethylaminomethyl-6-m-toluyl-cyclohept-1-enyl]-phenol hydrochloride]		3.2 ± 0.8
CN(C)CC1=C(c2cccc(O)c2)CC(c2cccc(C(C)(C)C)c2)CCC1 (stereo not drawn) [Example 2g, 3-[6-(3-tert-butyl-phenyl)-2-dimethylaminomethyl-cyclohept-1-enyl]-phenol hydrochloride]		17.5 ± 5.2
CN(C)CC1=C(c2cccc(O)c2)CC(c2ccc3cc(O)ccc3c2)CCC1 (stereo not drawn) [Example 2h, hydrochloride]	6.22	19.4 ± 4.7
CN(C)CC1=C(c2cccc(O)c2)CC(c2ccc(O)c(F)c2)CCC1.Cl (stereo not drawn) [Example 2i, 3-[2-dimethylaminomethyl-6-(3-fluoro-4-hydroxyphenyl)-cyclohept-1-enyl]-phenol hydrochloride]	0.89	14.6 ± 2.2
CN(C)CC1=C(c2cccc(O)c2)CC(c2ccccc2O)CCC1 (stereo not drawn) [Example 2j, 3-[2-dimethylaminomethyl-6-(2-hydroxyphenyl)-cyclohept-1-enyl]-phenol hydrochloride]		24.7 ± 3.1
CN(C)CC1=C(c2cccc(O)c2)CC(C2CCCCC2)CCC1 (stereo not drawn) [Example 2k, 3-(6-cyclohexyl-2-dimethylaminomethyl-cyclohept-1-enyl)-phenol hydrochloride]		10.3 ± 2.2
CN(C)CC1=C(c2cccc(O)c2)CC(CC2CCCCC2)CCC1 (stereo not drawn) [Example 2l, 3-(6-cyclohexylmethyl-2-dimethylaminomethyl-cyclohept-1-enyl)-phenol hydrochloride]		28.6 ± 5.8
CN(C)CC1=C(c2cccc(O)c2)CC(Cc2ccccc2)CCC1 (stereo not drawn) [Example 2m, 3-(6-benzyl-2-dimethylaminomethyl-cyclohept-1-enyl)-phenol hydrochloride]		10.2 ± 1
CN(C)CC1=C(c2cccc(O)c2)CC(Cc2cccc(O)c2)CCC1 (stereo not drawn) [Example 2n, 3-[2-dimethylaminomethyl)-6-(3-hydroxybenzyl)-cyclohept-1-enyl]-phenol hydrochloride]		7.4 ± 2.2
CN(C)CC1=C(c2cccc(O)c2)CC(CCc2ccccc2)CCC1 (stereo not drawn) [Example 2o, 3-(2-dimethylaminomethyl-6-phenethyl-cyclohept-1-enyl)-phenol hydrochloride]		30.6 ± 10.5
Cc1cc(C2CCCC(CN(C)C)=C(c3cccc(O)c3)C2)cc(C)c1O (stereo not drawn) [Example 2p, 3-[2-dimethylaminomethyl)-6-(3,5-dimethyl-4-hydroxyphenyl)-cyclohept-1-enyl]-phenol hydrochloride]		2.5
CN(CCc1ccccc1)CC1=C(c2cccc(O)c2)CC(c2ccccc2)CCC1.Cl (stereo not drawn) [Example 3, 3-{2-[(methylphenethylamino)-methyl]-6-phenyl-cyclohept-1-enyl}-phenol hydrochloride]	3.4	8.3 ± 3.3
